Data reported in PubChem BioAssay AID588428 (NMMLSC, 2011).
Activity calls are given as the source filed them.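 The calls were made as follows: active = compounds whose thermal stabilization response is above zero, meaning they raise the protein's melting point; inactive = the rest.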

target: Beta-adrenergic receptor kinase 1 (Homo sapiens) (UniProt P25098); experiment: ligand-induced GRK2 thermal stabilization – biophysical, Thermofluor, set 1, orthogonal assay for GRK2 aptamer-displacement inhibitor project (AID 588428); conditions: purified GRK2 thermal shift, ANS fluorescence; at 200 µM; hits give high values
Sequence (P25098 whole entry, looked up): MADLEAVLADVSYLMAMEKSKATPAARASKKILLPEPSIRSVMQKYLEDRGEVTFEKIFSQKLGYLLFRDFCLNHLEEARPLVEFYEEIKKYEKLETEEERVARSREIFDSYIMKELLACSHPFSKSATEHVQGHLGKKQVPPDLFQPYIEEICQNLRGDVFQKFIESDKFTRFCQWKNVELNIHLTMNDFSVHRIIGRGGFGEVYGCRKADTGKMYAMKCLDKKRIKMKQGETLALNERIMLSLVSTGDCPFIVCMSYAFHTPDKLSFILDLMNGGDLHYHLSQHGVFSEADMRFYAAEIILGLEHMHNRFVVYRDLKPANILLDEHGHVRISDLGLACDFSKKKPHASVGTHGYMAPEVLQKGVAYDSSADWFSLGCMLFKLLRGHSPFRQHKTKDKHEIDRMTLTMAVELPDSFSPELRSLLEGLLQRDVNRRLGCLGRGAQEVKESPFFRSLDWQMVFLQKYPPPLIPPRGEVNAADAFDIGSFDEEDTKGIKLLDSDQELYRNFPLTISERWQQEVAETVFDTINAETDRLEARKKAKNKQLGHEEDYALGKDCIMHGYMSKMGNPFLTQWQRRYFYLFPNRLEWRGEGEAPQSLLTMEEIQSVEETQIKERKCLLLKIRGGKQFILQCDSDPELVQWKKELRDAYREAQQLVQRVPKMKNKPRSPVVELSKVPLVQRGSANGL

| thermal stabilization response | Compound |
| --- | --- |
| -176% (inactive) | Cc1cc2ccccc2n1CCNC(=O)c1cccs1 |
| -75% (inactive) | O=C(CCS(=O)(=O)c1ccc(Br)cc1)Nc1cc(F)ccc1F |
| -35.6% (inactive) | CCc1ccccc1NC(=O)CCS(=O)(=O)c1ccc(Br)cc1 |
| -114% (inactive) | COc1ccc(CNC(=O)CCS(=O)(=O)c2ccc(Br)cc2)cc1 |
| -152% (inactive) | O=C(O)C1CC(=O)N(c2ccc3c(c2)OCCO3)C1 (stereo not given) |

The next lines start with the molecule.

| Compound | thermal stabilization response |
| --- | --- |
| Cc1cccc(N2CCN(C(=O)CCS(=O)(=O)c3ccc(Br)cc3)CC2C)c1 (stereo not given) | -5.78% (inactive) |
| CCOc1ccc(CCNC(=O)CCS(=O)(=O)c2ccc(Br)cc2)cc1OCC | -112% (inactive) |
| O=C(CCS(=O)(=O)c1ccc(Br)cc1)NCCc1ccc(Cl)cc1 | -53% (inactive) |
| Cc1cc(=O)[nH]c(SCC(=O)NCc2ccco2)n1 | -79.1% (inactive) |
| Cc1ccccc1NC(=O)CCS(=O)(=O)c1ccc(Br)cc1 | 108% |
